This is an account of results in article PMC12718135, “Non-catalytic UBL2 domain directs deubiquitinase USP11 toward K48-linked polyubiquitin chains” (The Journal of Biological Chemistry, 2025).

As usually defined, the IC50 is the concentration at which inhibition is half-maximal. Read a high IC50 as weaker potency in that assay.

Experiment [1] concerns the target T1, USP11ΔDUSP (Homo sapiens, UniProt P51784).
T1 construct: gene USP11; N-terminal DUSP domain removed; keeps UBL1, D1, UBL2-IDR, D2
Kind of experiment: SDS-gel deubiquitination of K48- and K63-polyubiquitinated Rsp5. The experiment is classed as biochemical. As to conditions: K48- and K63-linked poly-ubiquitinated Rsp5 substrates.

Experiment [2] concerns the target T2, USP11-D1D2 (Homo sapiens, UniProt P51784).
T2 construct: catalytic core only: D1 and D2 segments joined by five residues (ASTSK), UBL2-IDR insert, DUSP and UBL1 removed; E. coli BL21 RIL, N-terminal His6 tag cut with TEV
Nature of the experiment: SDS-gel deubiquitination of K63-polyubiquitinated Rsp5 (fluorescein-Ub). The experiment is classed as biochemical. The settings on record: 1 μM enzyme, 25 mM Tris pH 7.5, 200 mM NaCl, 3 mM βME.

T1 sequence (P51784 185-963 limits assumed, stated change not applied): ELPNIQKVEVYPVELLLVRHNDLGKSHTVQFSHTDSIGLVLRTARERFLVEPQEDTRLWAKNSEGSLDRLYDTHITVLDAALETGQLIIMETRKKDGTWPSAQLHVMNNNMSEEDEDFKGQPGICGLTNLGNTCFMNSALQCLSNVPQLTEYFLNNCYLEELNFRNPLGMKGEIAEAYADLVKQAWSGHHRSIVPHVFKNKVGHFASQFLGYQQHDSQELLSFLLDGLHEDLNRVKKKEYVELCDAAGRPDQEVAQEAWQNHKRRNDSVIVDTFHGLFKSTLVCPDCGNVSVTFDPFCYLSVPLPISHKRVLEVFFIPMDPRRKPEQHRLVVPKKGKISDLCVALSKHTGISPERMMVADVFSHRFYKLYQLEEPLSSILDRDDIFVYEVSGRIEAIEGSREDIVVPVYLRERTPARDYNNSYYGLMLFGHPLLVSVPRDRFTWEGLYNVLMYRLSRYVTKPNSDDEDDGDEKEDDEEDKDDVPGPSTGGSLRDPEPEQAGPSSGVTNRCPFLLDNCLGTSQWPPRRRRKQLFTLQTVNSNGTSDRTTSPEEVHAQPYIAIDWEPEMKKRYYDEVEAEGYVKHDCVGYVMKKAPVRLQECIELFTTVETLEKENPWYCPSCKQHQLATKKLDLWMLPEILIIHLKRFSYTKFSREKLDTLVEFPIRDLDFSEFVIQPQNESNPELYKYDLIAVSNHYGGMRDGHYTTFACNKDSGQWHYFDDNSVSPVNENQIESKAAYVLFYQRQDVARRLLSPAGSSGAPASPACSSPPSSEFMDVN
T2 sequence (P51784 286-490 limits assumed): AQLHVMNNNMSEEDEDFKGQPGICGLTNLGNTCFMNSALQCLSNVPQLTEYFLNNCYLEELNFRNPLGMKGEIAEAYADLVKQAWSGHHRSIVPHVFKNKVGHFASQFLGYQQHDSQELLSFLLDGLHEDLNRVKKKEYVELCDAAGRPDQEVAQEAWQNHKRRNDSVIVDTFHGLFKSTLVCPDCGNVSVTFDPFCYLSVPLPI
T2 sequence (P51784 735-930 limits assumed): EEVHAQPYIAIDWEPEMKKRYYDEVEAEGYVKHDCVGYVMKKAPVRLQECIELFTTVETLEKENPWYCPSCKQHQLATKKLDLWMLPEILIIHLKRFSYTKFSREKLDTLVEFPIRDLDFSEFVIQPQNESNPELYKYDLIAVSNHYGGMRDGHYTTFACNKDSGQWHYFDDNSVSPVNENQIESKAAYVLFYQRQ

As to `Oc1ccc(C2CNCCc3c2cc(O)c(O)c3Cl)cc1` (centres unmarked) [Fenoldopam], the “SDS-gel deubiquitination of K48- and K63-polyubiquitinated Rsp5” value (shortened to “SDS-gel deubiquitination”) in experiment [1] was “Fenoldopam and Olanzapine effectively disrupted the ability of USP11ΔDUSP to process both K48 and K63-linked”. The IC50 in experiment [2] was approximately 30 µM.

`Cc1cc2c(s1)Nc1ccccc1N=C2N1CCN(C)CC1` [Olanzapine]: the “SDS-gel deubiquitination” value in experiment [1] is “Fenoldopam and Olanzapine effectively disrupted the ability of USP11ΔDUSP to process both K48 and K63-linked”. Regarding `Oc1ccc(C2CNCCc3c2cc(O)c(O)c3Cl)cc1` (centres unmarked) [SRF-01], in experiment [1], the “SDS-gel deubiquitination” value was “SRF-01, SRF-02, SRF-03, and SRO-01 also inhibited the activity of USP11ΔDUSP”. In experiment [2] (value printed collectively for the analogs), this compound showed an IC50 of approximately 30 µM. With `Oc1cc2c(cc1O)C(c1ccccc1)CNCC2` (centres unmarked) [SRF-02], the “SDS-gel deubiquitination” value in experiment [1] is “SRF-01, SRF-02, SRF-03, and SRO-01 also inhibited the activity of USP11ΔDUSP”. For the same compound, the IC50 in experiment [2] is approximately 30 µM. On to `CN1CCc2cc(Cl)c(O)cc2[C@@H](c2ccccc2)C1` [SRF-03], for which the “SDS-gel deubiquitination” value in experiment [1] is “SRF-01, SRF-02, SRF-03, and SRO-01 also inhibited the activity of USP11ΔDUSP”. The compound further yielded an IC50 in experiment [2] of approximately 30 µM.

For the compound `Cc1cc2c(s1)Nc1ccccc1N=C2N1CC[N+](C)([O-])CC1` [SRO-01], the “SDS-gel deubiquitination” value in experiment [1] was “SRF-01, SRF-02, SRF-03, and SRO-01 also inhibited the activity of USP11ΔDUSP”. The compound further gave an IC50 in experiment [2] of approximately 30 µM.
